Source: patent publication US10517244B2, “Method to develop herbicide-resistant sugar beet plants” (priority 2012, dated 2019)
Read-outs that look alike come from different tables or passages of the source.

How the values were obtained:
[1] = tested on: sugar beet plants where the tryptophan at position 569 of the ALS enzyme is substituted by a leucine (Line B); test: Greenhouse trial, damage (phytotoxicity) rating after ALS inhibitor treatment, Line B; assay type: in vivo, Beta vulgaris L. ssp. vulgaris; conditions: day 14 after application at stage BBCH 14; scale 0% no damage to 100% completely killed; g/ha per herbicide
Excerpt: (§1) Uwe Meier, Biologische Bundesanstalt für Land und Forstwirtschaft. Subsequently, the resulting separate groups of sugar beet plants were each individually treated with an ALS inhibitor (ALS-in) in the amounts (g/ha) indicated in Table 2.
(§2) On day 14 after application of the respective ALS inhibitor, the damage (i.e. the phytotoxicity) for each sugar beet plant was rated on a scale from 0% (i.e. no damage, no phytotoxicity) to 100% (i.e. the plants were completely killed).

[2] = tested on: sugar beet plants where the proline at position 188 of the ALS enzyme is substituted by a serine (Line C); test: Greenhouse trial, damage (phytotoxicity) rating after ALS inhibitor treatment, Line C; assay type: in vivo, Beta vulgaris L. ssp. vulgaris; conditions: day 14 after application at stage BBCH 14; scale 0% no damage to 100% completely killed; g/ha per herbicide
Excerpt: as §1, §2

[3] = tested on: regenerated sugar beets having the mutated SEQ.ID.NO:3 (heterozygote); assay type: in vivo, sugar beet; conditions: Foramsulfuron 12.5 g/ha, amidosulfuron 15 g/ha, iodosulfuron 3.5 g/ha, thiencarbazone-methyl 7.5 g/ha, up to 3 applications
Excerpt: (§3) The inventors compared the behaviour of regenerated sugar beets having the mutated SEQ.ID.NO:3 (heterozygote for this mutation) and a wild-type (naive) sugar beet commercial variety.

[4] = tested on: dual mutant plant comprising SEQ.ID.NO:3 and SEQ.ID.NO:5 (NCIMB 42050); assay type: in vivo, sugar beet; conditions: even when put in composition with organic compounds; compatible with field application
Excerpt: The inventors then developed a mutated sugar beet plant comprising SEQ.ID.NO:3 and SEQ.ID.NO:5 (on two different alleles). Such resulting dual mutant has been deposited under the Budapest Treaty under NCIMB 42050. A plant comprising both SEQ.ID.NO:3 and SEQ.ID.NO:5 can be generated by relying on several techniques, including, for instance, a subsequent mutagenesis step applied to the single mutant NCIMB 42051.
The inventors then compared the resistance of this dual mutant plant (a mutation in one allele at amino acid 569 and a mutation in the other allele at amino acid 188) with the single mutant (a mutation at position 569) sugar beet.

[5] = tested on: sugar beet plants comprising SEQ.ID.NO:3 and SEQ.ID.NO:5 on two different alleles (Line A); test: Greenhouse trial, damage (phytotoxicity) rating after ALS inhibitor treatment, Line A; assay type: in vivo, Beta vulgaris L. ssp. vulgaris
Protocol: Mutated sugar beet plants comprising SEQ.ID.NO:3 and SEQ.ID.NO:5 (on two different alleles) according to the present invention (as described in Example 4 above, “Line A”) were treated with different ALS inhibitors in direct comparison with sugar beet plants where the tryptophan at position 569 of the encoded ALS enzyme is substituted by a leucine (“Line B”), sugar beet plants described in WO 98/02527 where the proline at position 188 of the encoded ALS enzyme is substituted by a serine (“Line C”), and traditional variety (wild-type) sugar beet plants not having a mutation at positions 569 and 188 (“Line WT”).
Several groups of seeds of the four different mentioned sugar beet plants were sown separately in the greenhouse and grew up to stage BBCH 14 for Beta vulgaris L. ssp. vulgaris (i.e. 4 leaves (the second pair) unfolded) according to the monographie “Entwicklungsstadien mono-und dikotyler Pflanzen”, 2nd edition, 2001, ed. Uwe Meier, Biologische Bundesanstalt für Land und Forstwirtschaft. Subsequently, the resulting separate groups of sugar beet plants were each individually treated with an ALS inhibitor (ALS-in) in the amounts (g/ha) indicated in Table 2.
as §2
Additionally, typical early phenotypes of each sugar beet plants were inspected after treatment with a mixture comprising thiencarbazone-methyl and foramsulfuron.

[6] = tested on: traditional variety (wild-type) sugar beet plants (Line WT); test: Greenhouse trial, damage (phytotoxicity) rating after ALS inhibitor treatment, Line WT; assay type: in vivo, Beta vulgaris L. ssp. vulgaris; conditions: day 14 after application at stage BBCH 14; scale 0% no damage to 100% completely killed; g/ha per herbicide
Excerpt: as §1, §2

[7] = tested on: stomatal guard cell protoplasts; test: Protoplasts viability under mutagenesis treatment; assay type: cell-based, sugar beet; conditions: treatment of more than 0.2% EMS
Excerpt: Possibly, this method further comprises the step of adding a mutagen agent to the culture of the isolated stomatal guard cell protoplasts.
Suitable mutagen agents are physical (such as UV or X-ray) exposure or exposure to chemical agents (such as Ethyl Methane Sulfonate (EMS), for instance at 0.05%, 0.1%, 0.15%, 0.2% or even at 2.5%).

[8] = tested on: sugar beet mutant with proline at position 188 of ALS substituted by a serine; conditions: at the necessary dose rate; WO 98/02527 mutant; cited from earlier work
[9] = tested on: homozygote 569/569 mutant sugar beet; conditions: WO 2012/049268; cited from earlier work
[10] = tested on: wild-type (naive) sugar beet commercial variety; test: ALS inhibitor treatment of wild-type sugar beets (Example 3); assay type: in vivo; conditions: Foramsulfuron 12.5 g/ha, amidosulfuron 15 g/ha, iodosulfuron 3.5 g/ha, thiencarbazone-methyl 7.5 g/ha
Excerpt: as §3

[11] = day 14 after application at stage BBCH 14, scale 0% no damage to 100% completely killed, g/ha per herbicide

| SMILES | damage (phytotoxicity) average rating, Line B [1] | damage (phytotoxicity) average rating, Line C [2] | resistance of the (heterozygote) mutated variety to the herbicide [3] | resistance of the dual mutant plant line to the herbicide [4] | damage (phytotoxicity) average rating, Line A ([5]; in vivo) | damage (phytotoxicity) average rating, Line WT [6] | damage (phytotoxicity) average rating, Line A [5, 11] | protoplasts viability [7] | phytotoxicity in field trials on proline 188 serine mutant [8] | resistance of homozygote 569/569 mutant in field trials [9] | resistance of the (heterozygote) mutated variety to the herbicide ([3]; listed as foramsulfuron) | sensitivity of the wild-type (naive) plant to the herbicide [10] |
| --- | --- | --- | --- | --- | --- | --- | --- | --- | --- | --- | --- | --- |
| COc1cc(OC)nc(NC(=O)NS(=O)(=O)N(C)S(C)(=O)=O)n1 [Amidosulfuron] | 37.5% | 51.9% | same level of resistance | good resistance | 6.3% | 73.1% |  |  |  |  |  |  |
| COc1cc(OC)nc(Oc2cccc(Oc3nc(OC)cc(OC)n3)c2C(=O)[O-])n1.[Na+] [Bisbyribac-Na] | 38.1% | 71.7% |  |  |  | 80.0% | 17.5% |  |  |  |  |  |
| CCOS(C)(=O)=O [EMS, Ethyl Methane Sulfonate] |  |  |  |  |  |  |  | detrimentally affected |  |  |  |  |
| COc1cc(OC)nc(NC(=O)NS(=O)(=O)c2cc(NC=O)ccc2C(=O)N(C)C)n1 [Foramsulfuron] | 45.6% | 77.5% | good resistance |  |  | 80.0% | 26.9% |  | some phytotoxicity | good resistance | best resistance |  |
| COc1cc(OC)n2nc(S(=O)(=O)Nc3c(Cl)ccc(C)c3Cl)nc2n1 [Metosulam] | 40.6% | 69.4% |  |  |  | 79.4% | 13.1% |  |  |  |  |  |
| COC(=O)c1csc(C)c1S(=O)(=O)NC(=O)n1nc(OC)n(C)c1=O [Thiencarbazone-methyl] | 35.6% | 37.5% | about the same level of resistance as for iodosulfuron | good resistance |  | 84.4% | 8.1% |  |  |  |  | very sensitive |
